# Laboratory results: patent US6780995B2, “Activated iododerivatives for the treatment of cancer and aids” (Isotechnika Inc., priority 1997, dated 2004)
# Where two headings read alike, the source gives them in different places.
# Key:
# [1] = system: A549 cells; assay: IC50 assay, inhibition of cell proliferation and growth, A549; type: cell-based, human; conditions: A549 bronchogenic cell line, neutral red or crystal violet, read-out: IC50 Concentrations, A 549
# Procedure: (§1) Cell culture: The human cell lines were propagated under sterile conditions in RPMI 1640 (CellGrow) with 10% fetal bovine serum (Hyclone), 2 mM L-glutamine, and sodium bicarbonate (complete medium) and incubated at 37° C. in HEPA-filtered Sterilcult CO2 tissue culture incubators (Forma) with 5% CO^2 and 95% humidity (Table 1). The murine leukemia cell lines were propagated in Dulbecco's MEM media with 10% equine serum (Hyclone), 2 mM L-glutamine, and sodium bicarbonate (complete medium) and incubated as described. The cells were subcultured twice weekly and used in experiments. The culture was screened for mycoplasma contamination using GeneProbe™ (Fisher) and positive cultures were cured of contaminants over three passages using constant treatment with BM-Cyclin™ antibiotic combination (Boehringer Mannheim). Only cultures confirmed as mycoplasma free were used in testing compounds for anticellular activity.
# (§2) The test compounds were stored at 4° C. under light protected conditions. The test compounds were weighed and dissolved in DMSO. The dissolved compounds were then serially diluted in warm medium (RPMI 1640 or Dulbecco's MEM) under constant mixing to minimize precipitation. The positive control drug doxorubicin was diluted in water followed by dilution in media to achieve a final concentration of 200 nM.
# (§3) For all experiments, the cells were harvested and centrifuged to remove the media, and suspended in fresh completed medium. Samples were taken to determine cell density. The cell count was determined with a Coulter Model Z1 cell counter and viability was measured with propidium iodide staining followed by analysis on a Coulter EPPICS Elite Flow cytometer. The cell samples sere adjusted with complete medium to a density of 5×10^4/mL for adherent cell lines and 1×10^5/mL for suspension lines. Tissue culture cluster plates (96 well, cat. No. 3595 Costar for adherent human lines and cat No. 25850 Corning for murine leukemias) were seeded with 100 μL cells and incubated as described. Replicate groups of plates were set up for each line to accommodate the exposure options for single agents and combinations. For each dilution 8 wells (100 μL samples of cells) were treated with 100 μL of dosing solution one day after plating. Each cluster plate contained a cell control (8 wells, mock-treated with complete medium), a medium control (3 wells with medium used to subtract out signal generated by media conditions), and an air blank (1 well, for calibrating the plate reader).
# (§4) Anticellular effects of the compounds for the adherent cell lines were assessed with neutral red dye. On the day of analysis, the media was removed from sample cell monolayers and replaced with 0.1 mL of neutral red solution (0.5% neutral red, HBSS:RPMI 1640 (1:1), 0.05 M HEPES, pH 7.2). After incubation of the samples at 37° C. for 1 hour the excess dye was removed with blotting and the monolayers were washed twice with 0.85% NaCl solution (0.1 mL per wash). The cell associated dye was extracted by adding 0.2 mL of a 0.1 M NaH2PO4:ethanol (1:1) solution/well followed by incubation for 1 hour at 35° C. The absorbency of neutral red in each monolayer was measured at 550 nm (620 nm reference beam) on a Denley Anthos 2001 microplate reader. The data were transferred via the ARCOM software capture program in Lotus 1-2-3 for processing.
# (§5) In assays where technical difficulties due to crystalization of the neutral red occurred the crystal violet staining procedure was employed to measure the amount of cells were left on the plate. Crystal violet staining solution [0.5% crystal violet (w/v), 50% methanol (v/v), 45% saline (v/v), and 5% formalin (v/v)] were prepared on the day of staining. After the media was removed from the sample wells, two drops of crystal violet stain were added to each well and the samples were incubated at ambient temperature for 10 minutes. […]
# [2] = system: B16 cells; assay: IC50 assay, inhibition of cell proliferation and growth, B16; type: cell-based; conditions: B16 murine melanoma cell line, neutral red or crystal violet, read-out: IC50 Concentrations, B16
# Procedure: as §1, §2, §3, §4, §5
# [3] = system: M14 cells; assay: IC50 assay, inhibition of cell proliferation and growth, M14; type: cell-based, human; conditions: M14 melanoma cell line, neutral red or crystal violet, read-out: IC50 Concentrations, M14
# Procedure: as §1, §2, §3, §4, §5
# [4] = system: MCF7 cells; assay: IC50 assay, inhibition of cell proliferation and growth, MCF7; type: cell-based, human; conditions: MCF7 breast adenocarcinoma cell line, neutral red or crystal violet, read-out: IC50 Concentrations, MCF 7
# Procedure: as §1, §2, §3, §4, §5
# [5] = system: SK-MEL-5 cells; assay: IC50 assay, inhibition of cell proliferation and growth, SK-MEL-5; type: cell-based, human; conditions: SK-MEL-5 melanoma cell line, neutral red or crystal violet, read-out: IC50 Concentrations, SK MEL-5
# Procedure: as §1, §2, §3, §4, §5
# [6] = system: SK-OV-3 cells; assay: IC50 assay, inhibition of cell proliferation and growth, SK-OV-3; type: cell-based, human; conditions: SK-OV-3 ovarian adenocarcinoma cell line, neutral red or crystal violet, read-out: IC50 Concentrations, SK-OV-3
# Procedure: as §1, §2, §3, §4, §5
# [7] = system: COLO 205 cells; assay: IC50 assay, inhibition of cell proliferation and growth, COLO 205; type: cell-based, human; conditions: COLO 205 colon adenocarcinoma cell line, neutral red or crystal violet, read-out: IC50 Concentrations, COLO 205
# Procedure: as §1, §2, §3, §4, §5
# [8] = system: RPMI 8226 cells; assay: IC50 assay, inhibition of cell proliferation and growth, RPMI 8226; type: cell-based; conditions: Homo sapiens; RPMI 8226 myeloma cell line; read-out: IC50 Concentrations, RPM 18226
# Procedure: as §1, §2, §3
# (§6) Using the procedures described above, concentrations of the Example compounds necessary to inhibit cell proliferation and growth by 50% (1C50 values) were determined in the test cell lines.
# [9] = system: L1210 cells; assay: IC50 assay (XTT), inhibition of cell proliferation and growth, L1210; type: cell-based; conditions: L1210 murine leukemia cell line, XTT dye conversion, read-out: IC50 Concentrations, L1210
# Procedure: as §1, §2, §3
# (§7) Anticellular effects of the murine leukemia cell lines were assessed with the XTT dye conversion assay which is more suited to suspension cultures. On the day of analysis XTT[2,3-bis(2-methoxy-4-nitro-5-sulfophenyl)-5-[(phenylamino)carbenyl]-2H-tetrazolium hydroxide, inner salt, sodium salt (Sigma)] was weighed out and dissolved at 1 mg/mL in media. PMS (phenazine methosulfate) was prepared at 5 mM in PBS (phosphate buffered saline) and stored as a stock solution 4° C. The PMS was mixed with dissolved XTT to a final concentration of 0.025 mM. Sample wells were treated with 50 μL of the XTT solution and the plates were incubated for four hours at 37° C. to allow for conversion into the liquid soluble formazan product. After the incubation period the reaction was stopped by adding 10 μL of 10% SDS solution per well and the wells contents of each plate were mixed by agitation. The absorbancy of formazan in each monolayer was measured at 450 nm (620 nm reference beam) on a Denley Anthos 2001 microplate reader. The data were transferred via the ARCOM software capture program into Lotus 1-2-3 for processing.
# as §6
# [10] = system: P388 cells; assay: IC50 assay (XTT), inhibition of cell proliferation and growth, P388; type: cell-based; conditions: P388 murine leukemia cell line, XTT dye conversion, read-out: IC50 Concentrations, P388
# Procedure: as §1, §2, §3, §7, §6
compound,measurement,setting,value
O=C(Nc1nnc(C(F)(F)F)s1)c1cc([N+](=O)[O-])ccc1I [Ref. No. 18],IC50,[1]; Homo sapiens,15.7 µM
same,IC50,[2]; Mus musculus,20.8 µM
same,IC50,[3]; Homo sapiens,27.3 µM
same,IC50,[4]; Homo sapiens,24 µM
same,IC50,[5]; Homo sapiens,28.8 µM
same,IC50,[6]; Homo sapiens,73 µM
same,IC50,[7]; Homo sapiens,41.3 µM
same,IC50,[8],16.7 µM
same,IC50,[9]; Mus musculus,28.4 µM
same,IC50,[10]; Mus musculus,12.8 µM
same,melting point,,219 to 221 °C
N-(4′-Pyridyl)-2-Iodo-5-Nitrophenyl Hydrazide [Ref. No. 10],IC50,[1],> 500 µM
same,IC50,[2],301 µM
same,IC50,[3],> 500 µM
same,IC50,[4],> 500 µM
same,IC50,[5],> 500 µM
same,IC50,[6],361 µM
same,IC50,[7],441 µM
same,IC50,[9],> 18.5 µM
same,IC50,[10],> 18.5 µM
"Cc1ccc(-c2csc(NC(=O)c3cc([N+](=O)[O-])ccc3I)n2)cc1 [Ref. No. 19, 2(2′-Iodo-5′-Nitro-Benzamido)-4-tolyl-Thiazole]",IC50,[1]; Homo sapiens,163 µM
same,IC50,[2]; Mus musculus,5.15 µM
same,IC50,[3]; Homo sapiens,14.4 µM
same,IC50,[4]; Homo sapiens,35.5 µM
same,IC50,[5]; Homo sapiens,51.3 µM
same,IC50,[6]; Homo sapiens,33.2 µM
same,IC50,[7]; Homo sapiens,18.2 µM
same,IC50,[8],11.8 µM
same,IC50,[9]; Mus musculus,13.5 µM
same,IC50,[10]; Mus musculus,2.43 µM
same,melting point,,244 to 248 °C
"Cc1cnc(NC(=O)c2cc([N+](=O)[O-])ccc2I)s1 [Ref. No. 22, 2(2′-Iodo-5′-Nitro-Benzamido)-5-Methyl-Thiazole]",IC50,[1]; Homo sapiens,45.2 µM
same,IC50,[2]; Mus musculus,6.2 µM
same,IC50,[3]; Homo sapiens,14.5 µM
same,IC50,[4]; Homo sapiens,14.8 µM
same,IC50,[5]; Homo sapiens,15.3 µM
same,IC50,[6]; Homo sapiens,16.1 µM
same,IC50,[7]; Homo sapiens,13.5 µM
same,IC50,[8],12.7 µM
same,IC50,[9]; Mus musculus,12.8 µM
same,IC50,[10]; Mus musculus,3.64 µM
"O=C(NC1=NCCS1)c1cc([N+](=O)[O-])ccc1I [Ref. No. 23, 2-(2′-Iodo-5′-Nitro-Benzamido)-2-Thiazoline]",IC50,[1]; Homo sapiens,> 500 µM
same,IC50,[2]; Mus musculus,129 µM
same,IC50,[3]; Homo sapiens,150 µM
same,IC50,[4]; Homo sapiens,162 µM
same,IC50,[5]; Homo sapiens,125 µM
same,IC50,[6]; Homo sapiens,> 500 µM
same,IC50,[7]; Homo sapiens,81.9 µM
same,IC50,[8],237 µM
same,IC50,[9]; Mus musculus,> 500 µM
same,IC50,[10]; Mus musculus,353 µM
same,melting point,,176 to 179 °C
CCOC(=O)c1sc(NC(=O)c2cc([N+](=O)[O-])ccc2I)nc1C [Ref. No. 16],IC50,[1]; Homo sapiens,30.1 µM
same,IC50,[2]; Mus musculus,7.93 µM
same,IC50,[3]; Homo sapiens,37.3 µM
same,IC50,[4]; Homo sapiens,34.3 µM
same,IC50,[5]; Homo sapiens,41.7 µM
same,IC50,[6]; Homo sapiens,41.2 µM
same,IC50,[7]; Homo sapiens,31.2 µM
same,IC50,[8],10.6 µM
same,IC50,[9]; Mus musculus,41.1 µM
same,IC50,[10]; Mus musculus,11.2 µM
same,melting point,,211 to 212 °C
"Cc1csc(NC(=O)c2cc([N+](=O)[O-])ccc2I)n1 [Ref. No. 21, 2-(2′-Iodo-5′-Nitro-Benzamido)-4-Methyl-Thiazole]",IC50,[1]; Homo sapiens,43.7 µM
same,IC50,[2]; Mus musculus,5.13 µM
same,IC50,[3]; Homo sapiens,13.2 µM
same,IC50,[4]; Homo sapiens,12.5 µM
same,IC50,[5]; Homo sapiens,15 µM
same,IC50,[6]; Homo sapiens,15.7 µM
same,IC50,[7]; Homo sapiens,5.59 µM
same,IC50,[8],3.33 µM
same,IC50,[9]; Mus musculus,12.8 µM
same,IC50,[10]; Mus musculus,3.44 µM
